Where a name gives a salt, the structure may show the parent alone. ± gives the standard deviation of the averaged measurements.
Test system: HepaRG
Assay: LDH release cytotoxicity, % of total lysis control; higher = more cytotoxic
Conditions: 48 h
Procedure, shortened: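 Single-lot HepaRG cells on collagen I-coated 96-well plates were exposed for 48 h in duplicate, in serum-free induction medium with 0.5% DMSO, to eight-point half-log series (test chemicals top 100 µM). Total lysis wells received 0.1% Triton X, and LDH leakage into 50 µL spent medium was read as resorufin fluorescence (CytoTox-ONE, Tecan Safire). Percent cytotoxicity was normalized to on-plate vehicle and total lysis controls and averaged over the duplicates.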

SMILES	LDH release cytotoxicity (0.03162 µM)	LDH release cytotoxicity (0.1 µM)	LDH release cytotoxicity (0.3162278 µM)	LDH release cytotoxicity (1 µM)	LDH release cytotoxicity (3.16228 µM)	LDH release cytotoxicity (10 µM)	LDH release cytotoxicity (31.6228 µM)	LDH release cytotoxicity (100 µM)	also measured
Cc1nc(-c2ccc3c(c2)CCN(CCC2CCC(NC(=O)C=Cc4ccc(F)cc4)CC2)CC3)no1 (configuration not stated)	0.287 ± 2.3%	-0.381 ± 0.15%	-0.128 ± 1.3%	-0.7917 ± 0.0065%	-0.696 ± 0.47%	-0.292 ± 0.19%	-0.793 ± 0.21%	-0.791 ± 0.54%	–
c1ccc(Nc2ccccc2)cc1 [Diphenylamine]	-0.79 ± 0.82%	-0.775 ± 0.35%	-0.986 ± 0.56%	-1.44 ± 0.19%	-1.13 ± 0.35%	-1 ± 0.56%	0.0424 ± 0.62%	3.57 ± 0.064%	–
OCC1OC(OC2(CO)OC(CO)C(O)C2O)C(O)C(O)C1O (configuration not stated) [Sucrose]	-1.56 ± 0.45%	-2.84 ± 0.18%	-1.3 ± 0.074%	-1.84 ± 0.36%	-2 ± 1.1%	-0.48 ± 1.6%	-0.542 ± 1.9%	1.54 ± 1.6%	–
CCCCCCCCCCCC[N+](C)(C)C [Dodecyltrimethylammonium chloride]	-1.4 ± 0.15%	-0.753 ± 0.6%	-1.39 ± 0.13%	-1.32 ± 0.19%	-1.23 ± 0.47%	-0.28 ± 0.2%	0.602 ± 0.64%	78 ± 0.7%	–
CCCCOC(=O)c1ccccc1C(=O)O [Monobutyl phthalate]	-2.25 ± 1%	-2.21 ± 0.79%	-2.76 ± 0.98%	-3.09 ± 0.93%	-2.68 ± 1.3%	-2.9 ± 1.1%	-2.43 ± 1.4%	-0.95 ± 1.3%	–
COC1COCCC1NC1CCC(C(=O)N2CCc3ncc(C(F)(F)F)cc3C2)(C(C)C)C1 (configuration not stated) [MK-812]	0.0558 ± 0.81%	-1.65 ± 0.31%	-1.72 ± 0.43%	-2.52 ± 1.1%	-1.87 ± 1%	-1.43 ± 0.51%	-1.59 ± 0.027%	-0.0412 ± 0.23%	–
CCCCCCCCOC(=O)c1cc(O)c(O)c(O)c1 [Octyl gallate]	-1.14 ± 0.66%	-0.159 ± 0.23%	-0.124 ± 0.33%	-0.776 ± 1.1%	0.219 ± 0.33%	-0.238 ± 0.52%	-1.86 ± 0.4%	2.05 ± 1.3%	–
CCOCCO [2-Ethoxyethanol]	-0.38 ± 0.81%	0.655 ± 1%	-0.174 ± 0.26%	0.482 ± 0.056%	0.0895 ± 0.63%	0.267 ± 1.2%	0.257 ± 0.32%	1.46 ± 0.97%	–
N#CN=C1SCCN1Cc1ccc(Cl)nc1 [Thiacloprid]	-2.96 ± 0.36%	-3.73 ± 0.31%	-3.467 ± 0.025%	-3.3 ± 0.68%	-3.46 ± 0.55%	-2.54 ± 0.15%	-2.87 ± 0.072%	-1.64 ± 1.2%	–
ClC1C(Cl)C(Cl)C(Cl)C(Cl)C1Cl (configuration not stated) [Lindane]	-0.796 ± 0.18%	-0.605 ± 0.45%	-0.762 ± 1%	-0.901 ± 0.75%	-0.128 ± 0.47%	-0.657 ± 0.1%	0.201 ± 0.43%	5.07 ± 0.72%	–
CC1(C)C(=O)NC(=O)N1CO [1-(Hydroxymethyl)-5,5-dimethylhydantoin]	-1.56 ± 1.1%	-1.1 ± 1.7%	-1.77 ± 0.95%	-1.77 ± 0.48%	-1.55 ± 0.76%	-1.08 ± 0.36%	-0.999 ± 0.29%	0.312 ± 0.47%	–
CNC(=O)Oc1cccc(N=CN(C)C)c1 [Formetanate hydrochloride]	–	–	–	–	–	–	–	–	LDH release cytotoxicity (0.0317809 µM): -8.9 ± 1.2%; LDH release cytotoxicity (0.1005 µM): -7.63 ± 0.9%; LDH release cytotoxicity (0.317809 µM): -7.59 ± 0.12%; LDH release cytotoxicity (1.005 µM): -7.51 ± 1%; LDH release cytotoxicity (3.17809 µM): -6.9 ± 0.096%; LDH release cytotoxicity (10.05 µM): -5.88 ± 0.74%; LDH release cytotoxicity (31.7809 µM): -6.15 ± 0.89%; LDH release cytotoxicity (100.5 µM): -5.62 ± 1.4%
COC(=O)C1C2CC3c4[nH]c5cc(OC)ccc5c4CCN3CC2CC(OC(=O)c2cc(OC)c(OC)c(OC)c2)C1OC (configuration not stated) [Reserpine]	–	–	–	–	–	–	–	–	LDH release cytotoxicity (0.0267212 µM): -2.17 ± 0.63%; LDH release cytotoxicity (0.0845 µM): -2.63 ± 0.23%; LDH release cytotoxicity (0.267213 µM): -1.99 ± 0.45%; LDH release cytotoxicity (0.845 µM): -3.03 ± 0.42%; LDH release cytotoxicity (2.67212 µM): -1.69 ± 0.29%; LDH release cytotoxicity (8.45 µM): -1.52 ± 1.1%; LDH release cytotoxicity (26.7212 µM): 10.5 ± 0.66%; LDH release cytotoxicity (84.5 µM): 46.8 ± 0.67%
CC(C)N(C(=O)COc1nnc(C(F)(F)F)s1)c1ccc(F)cc1 [Flufenacet]	-2.32 ± 1.1%	-2.03 ± 0.074%	-2.3 ± 0.27%	-2.01 ± 0.82%	-2.29 ± 0.33%	-1.38 ± 0.041%	0.458 ± 1.1%	1.71 ± 0.18%	–
O=C(NC1CN2CCC1CC2)c1ccc2c(c1)OCCO2 (configuration not stated)	-2.41 ± 0.21%	-1.45 ± 0.99%	-1.86 ± 0.11%	-1.29 ± 0.88%	-1.81 ± 0.071%	-1.38 ± 0.38%	-1.38 ± 0.035%	0.204 ± 0.59%	–
CCNC(=O)NC(=O)C(C#N)=NOC [Cymoxanil]	-0.835 ± 0.83%	-1.41 ± 0.052%	-2 ± 0.79%	-1.41 ± 0.59%	-2.17 ± 0.8%	-0.806 ± 1.1%	-0.354 ± 1%	1.89 ± 2.3%	–
CC(CO)OC(C)CO.CC(O)COCC(C)O (configuration not stated) [Dipropylene glycol]	-0.933 ± 0.81%	-1.33 ± 0.44%	-1.72 ± 1.1%	-2.46 ± 0.3%	-1.81 ± 0.92%	-1.07 ± 0.57%	-0.766 ± 1.3%	1.27 ± 1.3%	–
CCCCNC(=O)n1c(NC(=O)OC)nc2ccccc21 [Benomyl]	-1.36 ± 0.32%	-0.152 ± 0.59%	-0.651 ± 0.35%	-2.31 ± 0.2%	-1.18 ± 0.56%	8.93 ± 2.2%	8.73 ± 0.26%	9.79 ± 0.95%	–
CC(C)c1cccc(C(C)C)c1N1C(=O)c2ccc(O)cc2C1=O [2-(2,6-Diisopropylphenyl)-5-hydroxy-1H-isoindole-1,3-dione]	0.356 ± 0.042%	0.0666 ± 0.077%	-0.376 ± 0.57%	-0.99 ± 0.87%	-0.278 ± 0.47%	-0.287 ± 0.3%	-0.0632 ± 1%	0.492 ± 1.2%	–

Source: the supplement of paper PMC7840683
